# Measurements taken from patent US10538523B2, “4-(biphen-3-yl)-1H-pyrazolo[3,4-c]pyridazine derivatives of formula (I) as GABA receptor modulators for use in the treatment of epilepsy and pain” (PFIZER LIMITED, priority 2015, dated 2020).
# Legend:
# [1] = molecular target: GABRA2-GABRB2-GABRG2 chloride currents in HEK cells (Homo sapiens (Human), UniProt P18507+P47869); experiment: QPatch electrophysiological recording, % enhancement of GABA current (α2 PAM); format: cell-based; details: % enhancement of GABA current at approximately EC10 GABA, −60 mV, whole-cell patch clamp
# Procedure: Human Embryonic Kidney (HEK) cells were transfected with a GABRA2-GABRB2-GABRG2 construct using standard techniques. Cells stably expressing the GABRA2-GABRB2-GABRG2 constructs were identified by their resistance to Geneticin G-418 (320 μg/ml), Hygromycin (160 μg/ml) and Zeocin (40 μg/ml). Clones were screened for expression using the BD Pathway 855 imaging system (BD Biosciences, Rockville, Md., USA) and QPatch automated electrophysiology platform (Sophion, Copenhagen, Denmark). […]
# GABRA2-GABRB2-GABRG2 chloride currents in HEK cells were measured using the whole-cell configuration of the patch-clamp technique (Hamill et al., 1981). […]
# All compounds were dissolved in dimethyl sulfoxide to make 30 mM or 10 mM stock solutions, which were then diluted to 1000 times the desired final concentration in dimethyl sulfoxide. […] Currents were recorded at −60 mV, using an approximately EC10 concentration of gamma-aminobutyric acid (GABA). […]
# Compound effect (% enhancement of gamma-aminobutyric acid current) was calculated using the following formula: [((peak modulator current amplitude-leak)−(GABA current amplitude-leak))/(GABA current amplitude-leak)]*100, […]
# [2] = molecular target: human recombinant GABA A receptor containing the alpha2, beta2, and gamma2 subunits (Homo sapiens (Human), UniProt P18507+P47869); experiment: Radioligand competition binding assay with [3H]Ro-15-1788 (Flumazenil); details: [3H]flumazenil competition, HEK cell membranes, geometric mean of at least two replicates; read-out: GABA-α2 Ki
# Procedure: The affinity of the test compounds was determined by radioligand competition binding assay, using the known compound [3H]Ro-15-1788 (Flumazenil) (Perkin Elmer, 85.4 Ci/mmol) and the human recombinant GABA A receptor containing the alpha2, beta2, and gamma2 subunits.
# Membranes were prepared from HEK cells expressing hGABA A alpha2beta2-gamma2 receptor, and validated to ascertain protein concentration, receptor expression and to determine the Kd of the flumazenil as well as the Ki of a standard set of compounds before being used to test new compounds.
# The assay was carried out in 96 well plates; testing compounds using a 10 point semi-log dilution range from 19 uM top concentration. 100 ul of radioligand and 100 ul of membrane in 50 mM Tris-HCl and 0.05% F127 with 1 ul of test compound was incubated for 2 hours to allow the reaction to achieve equilibrium, and then harvested onto filter plates, dried and counted on a TopCount NXT. The data was analysed, and the Ki values were presented as the geometric mean of at least two replicates.
# [3] = molecular target: GABRA1-GABRB3-GABRG2 construct in HEK cells (Homo sapiens (Human), UniProt P14867+P18507); experiment: QPatch electrophysiological recording, % enhancement of GABA current (α1 PAM); format: cell-based; details: % enhancement of GABA current at approximately EC10 GABA, −60 mV, whole-cell patch clamp
Structure (SMILES),α2 PAM [1],Ki [2],α1 PAM [3]
"CCn1ncc2c(-c3ccc(F)c(-c4ccc(S(=O)(=O)CC)cc4OC)c3)cnnc21 [Example 1, 4-(4′-Ethanesulfonyl-6-fluoro-2′-methoxybiphenyl-3-yl)-1-ethyl-1H-pyrazolo[3,4-c]pyridazine]",109%,< 0.6 nM,18%
"CCn1ncc2c(-c3ccc(F)c(-c4ccc(S(=O)(=O)CC)cc4)c3)cnnc21 [Example 2, 4-(4′-Ethanesulfonyl-6-fluorobiphenyl-3-yl)-1-ethyl-1H-pyrazolo[3,4-c]pyridazine]",109%,17.5 nM,52%
